In general, ED50 refers to the midpoint of the dose-response relation.

Converted amounts (≈) assume the structure as drawn. Like-named read-outs stand apart in the source and are kept apart here.

In one assay the test system is Staphylococcus aureus. The assay can be described thus: MIC, broth-dilution microtiter test, Staphylococcus aureus. In kind it is cell-based. An excerpt: (§1) The MIC's in Table X were obtained using conventional broth-dilution microtiter tests.
Assay [1] has as its system Pasteurella multocida 60A. The assay can be described thus: MIC, broth-dilution microtiter test, Pasteurella multocida 60A. The class given is cell-based.
From the text: as §1

Assay [2] relates to Streptococcus pneumoniae Park I. The assay can be described thus: microbe, parasite or virus in culture. In kind it is cell-based.
Another assay deals with Mycoplasma hyorhinis. The assay can be described thus: MIC, broth-dilution microtiter test, Mycoplasma hyorhinis. The settings on record: Mycoplasma. In kind it is cell-based.
From the text: as §1

Assay [3] concerns Staphylococcus aureus S13E. Kind of assay: MIC, standard agar-dilution assay, Staphylococcus aureus S13E. The class given is cell-based. To be noted: Staphylococcus aureus, S13E.
Another assay has as its system Streptococcus Group 9960. Kind of assay: MIC, standard agar-dilution assay, Streptococcus Group 9960. In kind it is cell-based. To be noted: GROUP9960.
In assay [4] the test system is Staphylococcus epidermidis EPI2. The assay can be described thus: MIC, standard agar-dilution assay, Staphylococcus epidermidis EPI2. The class given is cell-based.
The test system of assay [5] is Staphylococcus aureus V41. Kind of assay: MIC, standard agar-dilution assay, Staphylococcus aureus V41. The class given is cell-based. The settings on record: Staphylococcus aureus, V41.
For a further assay, the system named is Streptococcus bovis 80. The assay can be described thus: MIC, broth-dilution microtiter test, Streptococcus bovis 80. The class given is cell-based. The settings on record: Streptococcus equinus; Streptococcus bovis 80; broth-dilution microtiter; read-out: MIC.
From the text: as §1

Assay [6] has as its system Haemophilus influenzae Holt. The assay can be described thus: MIC, standard agar-dilution assay, Haemophilus influenzae Holt. The class given is cell-based.
The subject of assay [7] is Streptococcus pyogenes C203. The assay can be described thus: MIC, standard agar-dilution assay, Streptococcus pyogenes C203. In kind it is cell-based.
Assay [8] has as its system Haemophilus influenzae R252. Kind of assay: MIC, standard agar-dilution assay, Haemophilus influenzae R252. The class given is cell-based.
The test system of assay [9] is Staphylococcus aureus X1.1. The assay can be described thus: MIC, standard agar-dilution assay, Staphylococcus aureus X1.1. The settings on record: Staphylococcus aureus, X1.1. In kind it is cell-based.
In assay [10] the test system is Streptococcus Group D X66. The assay can be described thus: MIC, standard agar-dilution assay, Streptococcus Group D X66. In kind it is cell-based.
For assay [11], the system named is Pasteurella multocida 17E. Kind of assay: MIC, broth-dilution microtiter test, Pasteurella multocida 17E. The class given is cell-based. To be noted: Pasteurella multocida 17E; bovine isolate; broth-dilution microtiter; read-out: MIC.
From the text: as §1

Assay [12] has as its system Pasteurella hemolytica 22C. Kind of assay: MIC, broth-dilution microtiter test, Pasteurella hemolytica 22C. The class given is cell-based.
From the text: as §1

In assay [13] the test system is Staphylococcus epidermidis EPI1. The assay can be described thus: MIC, standard agar-dilution assay, Staphylococcus epidermidis EPI1. In kind it is cell-based.
The next assay deals with Mycoplasma gallisepticum. Kind of assay: MIC, broth-dilution microtiter test, Mycoplasma gallisepticum. In kind it is cell-based. To be noted: Mycoplasmoides gallisepticum.
From the text: as §1

Assay [14] has as its system Staphylococcus aureus X400. Kind of assay: MIC, standard agar-dilution assay, Staphylococcus aureus X400. The class given is cell-based. To be noted: Staphylococcus aureus, X400.
The test system of another assay is Mycoplasma synoviae. The assay can be described thus: MIC, broth-dilution microtiter test, Mycoplasma synoviae. To be noted: Mycoplasmopsis synoviae. In kind it is cell-based.
From the text: as §1

Another assay relates to Mycoplasma hyopneumoniae. The assay can be described thus: MIC, broth-dilution microtiter test, Mycoplasma hyopneumoniae. In kind it is cell-based. The settings on record: Mesomycoplasma hyopneumoniae.
From the text: as §1

For assay [15], the system named is Streptococcus pyogenes C203. The assay can be described thus: In vivo protection of mice experimentally infected with S. pyogenes C203. To be noted: Streptococcus pyogenes, mice, doses given 1 and 4 hours post-infection. On the procedure:
The C-20 modified derivatives of this invention have shown in vivo antimicrobial activity against experimentally-induced infections in laboratory animals. When two doses of test compound were administered to mice experimentally infected with S. pyogenes C203, the activity observed was measured as an ED50 value [effective dose in mg/kg to protect 50% of the test animals: see Warren Wick, et al., J. Bacteriol. 81, 233-235 (1961)].

Setting [16] is: Pasteurella multocida 60A, avian isolate, broth-dilution microtiter, read-out: MIC.
Setting [17] is: Streptococcus Group D X66, agar dilution, read-out: MIC.
Where [18] appears, read: Pasteurella hemolytica 22C, broth-dilution microtiter, read-out: MIC.
Where [19] appears, read: Staphylococcus epidermidis, EPI1.
The mark [20] stands for this setting: Mycoplasma gallisepticum, broth-dilution microtiter, read-out: MIC.
Where [21] appears, read: Mycoplasma hyopneumoniae, broth-dilution microtiter, read-out: MIC.
The mark [22] stands for this setting: Staphylococcus epidermidis, EPI2.

In the case of `CCC1OC(=O)CC(O)C(C)C(OC2OC(C)C(OC3CC(C)(O)C(O)C(C)O3)C(N(C)C)C2O)C(CCOc2ccc([N+](=O)[O-])cc2)CC(C)C(=O)C=CC(C)=CC1COC1OC(C)C(O)C(OC)C1OC` (stereo not shown) [Compound 12, 20-DH-20-O-(p-Nitrophenyl)tylosin], the MIC with Staphylococcus aureus is 1.56 µg/mL (≈ 1.5 µM); in [1] (setting [16]) it was above 50 µg/mL; in assay [2] (Streptococcus pneumoniae Park I, agar dilution, read-out: MIC), 16 µg/mL (≈ 15.4 µM); against Mycoplasma hyorhinis it was 50 µg/mL (≈ 48.1 µM); in assay [3], 1 µg/mL (≈ 0.962 µM); in the assay on Streptococcus Group 9960, above 128 µg/mL. Further, the MIC in assay [4] (Staphylococcus epidermidis EPI2, agar dilution, read-out: MIC) is 0.5 µg/mL (≈ 0.481 µM); in assay [5], 1 µg/mL (≈ 0.962 µM); with Streptococcus bovis 80, 25 µg/mL (≈ 24.1 µM); in [6] (Haemophilus influenzae Holt, ampicillin-sensitive strain, read-out: MIC), above 128 µg/mL; in [7] (Streptococcus pyogenes, C203), 2 µg/mL (≈ 1.92 µM); in assay [8] (Haemophilus influenzae, R252), 128 µg/mL (≈ 123 µM). The MIC is 1 µg/mL (≈ 0.962 µM) in assay [9]; 128 µg/mL (≈ 123 µM) in assay [10] (setting [17]); above 50 µg/mL in assay [11]; above 50 µg/mL in assay [12] (setting [18]); 1 µg/mL (≈ 0.962 µM) in assay [13] (setting [19]); 0.39 µg/mL (≈ 0.375 µM) in the assay with Mycoplasma gallisepticum (setting [20]). Besides, the MIC in [14] was 2 µg/mL (≈ 1.92 µM); against Mycoplasma synoviae, 1.56 µg/mL (≈ 1.5 µM); in the assay on Mycoplasma hyopneumoniae (setting [21]), above 25 µg/mL.

`CCC1OC(=O)CC(O)C(C)C(OC2OC(C)C(OC3CC(C)(O)C(O)C(C)O3)C(N(C)C)C2O)C(CCOc2ccc(C(=O)c3ccccc3)cc2)CC(C)C(=O)C=CC(C)=CC1COC1OC(C)C(O)C(OC)C1OC` (stereo not shown) [Compound 13, 20-DH-20-O-(p-Benzoylphenyl)tylosin]: the MIC with Staphylococcus aureus (broth-dilution microtiter, read-out: MIC) is 1.56 µg/mL (≈ 1.42 µM); in assay [1] (setting [16]), above 50 µg/mL; in assay [2] (Streptococcus pneumoniae) it was 1 µg/mL (≈ 0.91 µM); in the assay on Mycoplasma hyorhinis, 6.25 µg/mL (≈ 5.69 µM); in assay [3], 1 µg/mL (≈ 0.91 µM); in the assay on Streptococcus Group 9960, 4 µg/mL (≈ 3.64 µM). For the same compound, the MIC in assay [4] (setting [22]) was 1 µg/mL (≈ 0.91 µM); in [5] it was 1 µg/mL (≈ 0.91 µM); with Streptococcus bovis 80, 1.56 µg/mL (≈ 1.42 µM); in assay [6] (Haemophilus influenzae), above 128 µg/mL; in assay [7] (Streptococcus pyogenes C203, agar dilution, read-out: MIC), 2 µg/mL (≈ 1.82 µM); in assay [8] (Haemophilus influenzae R252, ampicillin-resistant strain, read-out: MIC), above 128 µg/mL. The MIC in assay [9] is 1 µg/mL (≈ 0.91 µM); in [10], 4 µg/mL (≈ 3.64 µM); in assay [11], above 50 µg/mL; in [12] (setting [18]), above 50 µg/mL; in [13] (Staphylococcus epidermidis EPI1, agar dilution, read-out: MIC), 2 µg/mL (≈ 1.82 µM); with Mycoplasma gallisepticum (setting [20]) it was 0.78 µg/mL (≈ 0.71 µM). Moreover, the MIC in assay [14] came to 4 µg/mL (≈ 3.64 µM); against Mycoplasma synoviae it was 6.25 µg/mL (≈ 5.69 µM); in the assay with Mycoplasma hyopneumoniae (setting [21]), 3.12 µg/mL (≈ 2.84 µM).

On to `CCC1OC(=O)CC(O)C(C)C(OC2OC(C)C(O)C(N(C)C)C2O)C(CC2OCCO2)CC(C)C(=O)C=CC(C)=CC1COC1OC(C)C(O)C(OC)C1OC` (stereo not shown) [Compound 74], for which the MIC against Staphylococcus aureus was found to be 3.12 µg/mL (≈ 3.82 µM); in assay [1] (Pasteurella multocida, 60A), 50 µg/mL (≈ 61.3 µM); in [2] (Streptococcus pneumoniae), 0.25 µg/mL (≈ 0.306 µM); in the assay with Mycoplasma hyorhinis, 50 µg/mL (≈ 61.3 µM); in assay [3], 0.5 µg/mL (≈ 0.613 µM); with Streptococcus Group 9960 (Streptococcus Group 9960, agar dilution, read-out: MIC), 8 µg/mL (≈ 9.8 µM). The MIC in [4] (setting [22]) is 0.25 µg/mL (≈ 0.306 µM); in assay [5], 1 µg/mL (≈ 1.23 µM); in the assay on Streptococcus bovis 80, 6.25 µg/mL (≈ 7.66 µM); in assay [6] (Haemophilus influenzae) it was 32 µg/mL (≈ 39.2 µM); in [8] (Haemophilus influenzae, R252) it was 32 µg/mL (≈ 39.2 µM); in assay [9], 0.5 µg/mL (≈ 0.613 µM). Besides, the MIC in [10] (setting [17]) amounted to 8 µg/mL (≈ 9.8 µM); in assay [11] it was 25 µg/mL (≈ 30.6 µM); in assay [12] (Pasteurella, 22C), 50 µg/mL (≈ 61.3 µM); in assay [13] (setting [19]) it was 0.5 µg/mL (≈ 0.613 µM); in the assay with Mycoplasma gallisepticum, 3.12 µg/mL (≈ 3.82 µM); in [14], 2 µg/mL (≈ 2.45 µM). Further, the figures for the MIC in the assay with Mycoplasma synoviae and against Mycoplasma hyopneumoniae were 6.25 µg/mL (≈ 7.66 µM) and 1.56 µg/mL (≈ 1.91 µM), respectively. For the same compound, the ED50 in [15] (C203, sc, subcutaneous, read-out: ED50, Subcutaneous) is 3.3 mg/kg; in [15] (C203, oral, read-out: ED50, Oral), above 25 mg/kg.
